Measurements as given in paper PMC7956155, “Design and Evaluation of Peptide Dual-Agonists of GLP-1 and NPY2 Receptors for Glucoregulation and Weight Loss with Mitigated Nausea and Emesis” (Journal of Medicinal Chemistry, 2021).
pEC50, pIC50, pKd: −log10 of the molar value. Square brackets hold non-standard residues; d marks the D form. Ends that are not written are not given here.

Assays:
human GLP-1R [1] = molecular target: T1, human GLP-1R (Homo sapiens, UniProt P43220); test: Taglite fluorescent competitive binding assay at GLP-1R against GLP-1red; details: CHO-K1 cells, tracer GLP-1red 4 nM, duplicate independent runs
T1 sequence (P43220 24-463): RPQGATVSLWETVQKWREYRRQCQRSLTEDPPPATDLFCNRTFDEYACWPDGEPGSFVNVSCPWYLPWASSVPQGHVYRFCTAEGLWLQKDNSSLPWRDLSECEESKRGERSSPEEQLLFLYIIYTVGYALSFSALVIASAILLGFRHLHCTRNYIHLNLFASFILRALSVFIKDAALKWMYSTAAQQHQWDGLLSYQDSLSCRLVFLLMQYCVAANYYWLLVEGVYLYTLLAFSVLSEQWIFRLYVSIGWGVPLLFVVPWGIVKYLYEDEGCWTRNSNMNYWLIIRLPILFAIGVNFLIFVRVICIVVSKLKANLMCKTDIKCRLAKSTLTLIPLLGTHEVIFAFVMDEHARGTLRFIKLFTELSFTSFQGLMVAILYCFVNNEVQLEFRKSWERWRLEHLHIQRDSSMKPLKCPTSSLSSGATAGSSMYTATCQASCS

rat GlucR = rat GlucR (Rattus norvegicus, UniProt P30082); test: cAMP FRET reporter (H188) agonism assay at GlucR in HEK293 cells; type: cell-based; details: HEK293 cells stably expressing GlucR, H188 FRET biosensor; duplicate independent experiments; read-out: GlucR agonist action (EC50), increase of cytosolic cAMP
Sequence of rat GlucR (P30082 27-485): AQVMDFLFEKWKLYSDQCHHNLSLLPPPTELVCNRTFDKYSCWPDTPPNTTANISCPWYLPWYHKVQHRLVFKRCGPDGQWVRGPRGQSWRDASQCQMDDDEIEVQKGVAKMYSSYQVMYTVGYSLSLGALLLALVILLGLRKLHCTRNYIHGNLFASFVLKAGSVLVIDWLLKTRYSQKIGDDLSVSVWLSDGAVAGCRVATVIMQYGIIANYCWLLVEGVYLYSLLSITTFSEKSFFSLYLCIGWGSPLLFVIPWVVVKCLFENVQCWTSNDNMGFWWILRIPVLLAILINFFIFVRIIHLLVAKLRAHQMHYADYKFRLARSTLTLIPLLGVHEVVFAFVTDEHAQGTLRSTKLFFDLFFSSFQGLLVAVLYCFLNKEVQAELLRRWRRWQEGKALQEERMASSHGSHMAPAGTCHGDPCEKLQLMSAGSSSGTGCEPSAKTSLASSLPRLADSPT
Method: Plasmid encoding human Y2-R (I.D. NPYR20TN00) in pcDNA3.1 and human Y1-R (NPYR10TN00) were obtained from the cDNA Resource Center (Bloomsburg, PA). HEK293 cells stably expressing the rat GlucR were obtained from C. […] Adenovirus for transduction of HEK293 cells was generated by a commercial vendor (Vira-Quest, North Liberty, IA) using the shuttle vector pVQAd CMV K-NpA and the H188 plasmid provided by Prof. Kees Jalink.[74]
These assays were conducted as fully described by us previously.[70],[71] Briefly, HEK293 cells transiently or stably expressing recombinant GPCRs were plated at 80% confluency on 96-well clear-bottom assay plates (Costar 3904, Corning, NY). […] Real-time kinetic assays of FRET were performed using a FlexStation 3 microplate reader equipped with excitation and emission light monochromators (Molecular Devices, Sunnyvale, CA). Excitation light was delivered at 435/9 nm (455 nm cutoff), and emitted light was detected at 485 ± 15 nm (cyan fluorescent protein) or 535 ± 15 nm (yellow fluorescent protein).[68],[75] […] The 485/535 emission ratio was calculated for each well, and the mean ± SD values for 12 wells were averaged. […] Prism 8.1 was also used for nonlinear regression analysis to quantify dose–response relationships.

[2] = Pooled rat liver microsomal stability assay; type: in vitro ADME; details: pooled male Sprague–Dawley rat liver microsomes 1 mg/mL, 30 μM peptide, 1 mM NADPH, pH 7.4, 37 °C, over 120 min, HPLC UV 206 nm, n = 3; standard error in brackets
Method: Pooled liver microsomes from a male Sprague–Dawley rat were purchased from Sigma-Aldrich. Microsomal incubations were performed in triplicate as independent data sets in 3 mM MgCl2, 25 mM KH2PO4 buffer at pH 7.4. Assays were performed at 500 μL total volume with 30 μM peptide, 1 mM NADPH, and 1 mg/mL pooled liver microsomes. Kanamycin at 200 μM was used as an internal standard. Pooled rat liver microsome assay showing data collected by HPLC. […] Assays were conducted at 37 °C with gentle rocking. […] Data were fit utilizing eqs 3–6.

human Y1-R = molecular target: T2, human Y1-R (Homo sapiens, UniProt P25929); test: cAMP FRET reporter (H188) assay at Y1-R: counteraction of adenosine-stimulated cAMP in HEK293 cells; type: cell-based; details: HEK cells with H188 biosensor, recombinant human Y1-R and endogenous A2b receptors; 2 μM adenosine; 95% CI in brackets, at least triplicate; read-out: Y1-R agonist action (IC50), decrease of adenosine-raised cAMP
T2 sequence (P25929 1-384): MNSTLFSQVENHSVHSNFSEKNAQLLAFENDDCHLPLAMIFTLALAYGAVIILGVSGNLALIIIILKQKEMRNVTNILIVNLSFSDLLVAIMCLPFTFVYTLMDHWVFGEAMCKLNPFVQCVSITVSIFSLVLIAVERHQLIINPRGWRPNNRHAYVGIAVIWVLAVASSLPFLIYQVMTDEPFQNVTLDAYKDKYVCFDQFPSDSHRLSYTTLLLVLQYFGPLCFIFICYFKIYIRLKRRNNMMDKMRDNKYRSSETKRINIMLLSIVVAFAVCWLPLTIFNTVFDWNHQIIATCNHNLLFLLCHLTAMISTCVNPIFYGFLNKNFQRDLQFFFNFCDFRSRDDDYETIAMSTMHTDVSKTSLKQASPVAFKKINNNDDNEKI

human GLP-1R [3] = molecular target: T1, human GLP-1R; test: cAMP FRET reporter (H188) agonism assay at human GLP-1R in HEK293 cells; type: cell-based
Method: HEK293 cells stably expressing the human GLP-1R and virally transduced with H188 for FRET assays were obtained from Novo Nordisk A/S (Bagsvaerd, Denmark).[67] […] Post-transfection, cells were incubated for 48 h in fresh culture media. For real-time kinetic assays of FRET, cells were harvested and resuspended in 21 mL of SES buffer and plated at 196 μL per well. […] FRET assays and data analysis were performed using a FlexStation 3 microplate reader as described.
Cells were then transduced for 16 h with H188 virus at a density of 60 000 cells/well under conditions in which the multiplicity of infection was equivalent to 25 viral particles per cell. The culture media was removed and replaced by 200 μL/well of a standard extracellular saline (SES) solution supplemented with 11 mM glucose and 0.1% BSA. […] Real-time kinetic assays of FRET were performed using a FlexStation 3 microplate reader equipped with excitation and emission light monochromators (Molecular Devices, Sunnyvale, CA). […] The emission intensities were the averages of 15 excitation flashes for each time point per well. […] Prism 8.1 was also used for nonlinear regression analysis to quantify dose–response relationships.

human Y2-R = molecular target: T3, human Y2-R (Homo sapiens, UniProt P49146); test: cAMP FRET reporter (H188) assay at Y2-R: counteraction of adenosine-stimulated cAMP in HEK293 cells; type: cell-based; details: HEK cells with H188 biosensor, recombinant human Y2-R and endogenous A2b receptors; 2 μM adenosine; 95% CI in brackets, at least triplicate; read-out: Y2-R agonist action (IC50), decrease of adenosine-raised cAMP
T3 sequence (P49146 1-381): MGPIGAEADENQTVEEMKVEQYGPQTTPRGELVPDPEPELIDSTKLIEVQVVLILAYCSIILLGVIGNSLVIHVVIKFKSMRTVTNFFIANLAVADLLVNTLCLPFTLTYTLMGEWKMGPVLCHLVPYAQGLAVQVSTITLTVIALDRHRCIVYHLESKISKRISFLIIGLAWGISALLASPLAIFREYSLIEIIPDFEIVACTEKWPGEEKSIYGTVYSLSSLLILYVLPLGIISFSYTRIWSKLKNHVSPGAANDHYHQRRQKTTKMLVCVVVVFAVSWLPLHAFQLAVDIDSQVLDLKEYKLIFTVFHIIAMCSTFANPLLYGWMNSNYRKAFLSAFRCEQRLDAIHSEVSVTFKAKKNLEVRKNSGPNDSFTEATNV

rat GLP-1R = molecular target: T4, rat GLP-1R (Rattus norvegicus, UniProt P32301); type: cell-based
T4 sequence (P32301 22-463): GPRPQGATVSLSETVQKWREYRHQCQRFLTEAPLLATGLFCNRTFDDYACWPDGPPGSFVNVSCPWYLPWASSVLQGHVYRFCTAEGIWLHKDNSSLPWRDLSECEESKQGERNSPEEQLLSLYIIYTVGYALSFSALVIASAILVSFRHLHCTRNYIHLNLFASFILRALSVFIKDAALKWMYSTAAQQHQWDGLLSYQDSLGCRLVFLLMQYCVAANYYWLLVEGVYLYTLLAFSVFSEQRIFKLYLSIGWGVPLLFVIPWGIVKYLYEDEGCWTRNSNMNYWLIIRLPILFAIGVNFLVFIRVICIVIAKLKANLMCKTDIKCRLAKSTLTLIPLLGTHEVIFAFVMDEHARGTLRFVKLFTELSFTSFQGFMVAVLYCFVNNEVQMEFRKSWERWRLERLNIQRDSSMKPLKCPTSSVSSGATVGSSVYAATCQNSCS

Compound | hill (competition binding at GLP-1R) (human GLP-1R [1]) | pEC50 (rat GlucR) | CLlnt, intrinsic clearance in rat liver microsomes [2] | pIC50 (human Y1-R) | pIC50 (human GLP-1R [1]; nine concentrations 1 pM to 1 μM, range in brackets, read-out: IC50, competition binding at GLP-1R using red fluorescent GLP-1) | pEC50 (human GLP-1R [3]; HEK cells expressing human GLP-1R and cAMP biosensor H188, FRET, SES buffer pH 7.4, nonlinear regression, 95% CI in brackets, at least triplicate independent data sets, read-out: GLP-1R agonist action (EC50), increase of cytosolic cAMP) | pIC50 (human Y2-R) | pKd (rat GLP-1R) | increased GLP-1R potency over GEP44 (human GLP-1R [3]; comparison of EC50 values) [%]
CC[C@H](C)[C@H](NC(=O)[C@H](Cc1ccccc1)NC(=O)[C@H](CC(C)C)NC(=O)[C@H](CCCNC(=N)N)NC(=O)[C@@H](NC(=O)[C@H](C)NC(=O)[C@H](CCC(=O)O)NC(=O)[C@H](CCC(=O)O)NC(=O)[C@H](CCC(=O)O)NC(=O)[C@H](CCSC)NC(=O)[C@H](CCC(N)=O)NC(=O)[C@H](CCCCN=[N+]=[N-])NC(=O)[C@H](CO)NC(=O)[C@H](CC(C)C)NC(=O)[C@H](CC(=O)O)NC(=O)[C@H](CO)NC(=O)[C@@H](NC(=O)[C@H](Cc1ccccc1)NC(=O)[C@@H](NC(=O)CNC(=O)[C@H](CCC(N)=O)NC(=O)[C@@H](CO)NC(=O)[C@@H](N)Cc1c[nH]cn1)[C@@H](C)O)[C@@H](C)O)C(C)C)C(=O)N[C@@H](CCC(=O)O)C(=O)N[C@@H](Cc1c[nH]c2ccccc12)C(=O)N[C@@H](CC(C)C)C(=O)N[C@@H](CCCCN)C(=O)N[C@@H](CC(N)=O)C(=O)N[C@@H](CCCNC(=N)N)C(=O)N[C@@H](Cc1c[nH]cn1)C(=O)N[C@@H](Cc1ccc(O)cc1)C(=O)N[C@@H](CC(C)C)C(=O)N[C@@H](CC(N)=O)C(=O)N[C@@H](CC(C)C)C(=O)N[C@H](C(=O)N[C@H](C(=O)N[C@@H](CCCNC(=N)N)C(=O)N[C@@H](CCC(N)=O)C(=O)N[C@@H](CCCNC(=N)N)C(=O)N[C@@H](Cc1ccc(O)cc1)C(N)=O)[C@@H](C)O)C(C)C [EP40] | –0.96 | – | – | – | – | – | – | – | –
CC[C@H](C)[C@H](NC(=O)[C@H](Cc1ccccc1)NC(=O)[C@H](CCC(=O)O)NC(=O)[C@H](CCCNC(=N)N)NC(=O)[C@@H](NC(=O)[C@H](C)NC(=O)[C@H](CCC(=O)O)NC(=O)[C@H](CCC(=O)O)NC(=O)[C@H](CCC(=O)O)NC(=O)[C@H](CC(C)C)NC(=O)[C@H](Cc1ccc(O)cc1)NC(=O)[C@H](CCCCN=[N+]=[N-])NC(=O)[C@H](CO)NC(=O)[C@H](CC(C)C)NC(=O)[C@H](CC(=O)O)NC(=O)[C@H](CO)NC(=O)[C@@H](NC(=O)[C@H](Cc1ccccc1)NC(=O)[C@@H](NC(=O)CNC(=O)[C@H](CCC(N)=O)NC(=O)[C@@H](CO)NC(=O)[C@@H](N)Cc1c[nH]cn1)[C@@H](C)O)[C@@H](C)O)C(C)C)C(=O)N[C@@H](C)C(=O)N[C@@H](Cc1c[nH]c2ccccc12)C(=O)N[C@@H](CC(C)C)C(=O)N[C@@H](CCCCN)C(=O)N[C@@H](CC(N)=O)C(=O)NCC(=O)NCC(=O)N1CCC[C@H]1C(=O)N[C@@H](CO)C(=O)N[C@@H](CCCNC(=N)N)C(=O)N[C@@H](Cc1c[nH]cn1)C(=O)N[C@@H](Cc1ccc(O)cc1)C(=O)N[C@@H](CC(C)C)C(=O)N[C@@H](CC(N)=O)C(=O)N[C@@H](CC(C)C)C(=O)N[C@H](C(=O)N[C@H](C(=O)N[C@@H](CCCNC(=N)N)C(=O)N[C@@H](CCC(N)=O)C(=O)N[C@@H](CCCNC(=N)N)C(=O)N[C@@H](Cc1ccc(O)cc1)C(N)=O)[C@@H](C)O)C(C)C [GEP44] | – | < 5.52 | 32.5 (1.18) μL/min/mg peptide | 7.57 | 6.95 | 9.48 | 8.00 | – | –
H[dS]QGTFTSDLSKQMEEEAVRLFIEWLKNGGPSRHYLNLVTRQRY-NH2 [EP44] | –1.56 | – | – | – | – | – | – | 9.92 | ~30
